The text below walks through data of patent US7786116B2, “2-amino-quinoline derivatives useful as inhibitors of β-secretase (BACE)” (Janssen Pharmaceutica N.V., priority 2008, dated 2010).

In general, IC50 refers to the concentration that inhibits the measured activity by half. Usually inhibition stands for the change of the read-out against control, counted positive when it falls.

The assay deals with human BACE-1 (Homo sapiens, UniProt P56817). The assay can be described thus: in vitro BACE Assay-1 (CEREP, fluorogenic substrate). It is filed as biochemical. The following applies: for IC50: recombinant enzyme, pH 4.5, 60 min at 37° C.; for inhibition at 10 µM / % Inh @ 10 μM: test compound at 10 μM; for % Inh @ 1 μM / inhibition at 1 µM: test compound at 1 μM. As for the experimental part: This assay was run by CEREP (Catalog Ref. 761-B, Referred to SOP No. 1C131; ERMOLIEFF, J., LOY, J. A., KOELSCH, G. and TANG, J., Proteolytic activation of recombinant pro-memapsin 2 (pro-BACE) studied with new fluorogenic substrates, Biochemistry, (2000) Vol. 39, p. 12450).
More specifically the assay, run at 50 μL in a 96 well plate, evaluated the effect of test compound on the activity of the human BACE-1 quantified by measuring the formation of Mca-S-E-V-N-L-NH2 from Mca-S-E-V-N-L-D-A-E-F-R-K(Dnp)-R—R—NH2, using a recombinant enzyme.
The test compound, reference compound or water (control) was added to a buffer containing 0.09 M sodium acetate (pH 4.5) and 0.25 μg BACE-1. Compound interference with the fluorimetric detection method due to autofluorescence was then checked by measurements at the wavelengths defined to evaluate the enzyme activity. Thereafter, the reaction was initiated by adding 7.5 μM of the substrate Mca-S-E-V-N-L-D-A-E-F-R-K(Dnp)-R—R—NH2 and the mixture was incubated for 60 min at 37° C. For control basal measurement, the substrate was omitted from the reaction mixture. Immediately after the incubation, the fluorescence intensity emitted by the reaction product Mca-S-E-V-N-L-NH2 was measured at λex=320 nm and λem=405 nm using a microplate reader (Ultra, Tecan). The standard inhibitory reference compound was OM99-2, which was tested in each experiment at several concentrations to obtain an inhibition curve from which its IC50 value was calculated.
Representative compounds of the present invention were tested in the assay as described above, with results as listed in Table 3, below.

Chain of human BACE-1 (P56817 46-501): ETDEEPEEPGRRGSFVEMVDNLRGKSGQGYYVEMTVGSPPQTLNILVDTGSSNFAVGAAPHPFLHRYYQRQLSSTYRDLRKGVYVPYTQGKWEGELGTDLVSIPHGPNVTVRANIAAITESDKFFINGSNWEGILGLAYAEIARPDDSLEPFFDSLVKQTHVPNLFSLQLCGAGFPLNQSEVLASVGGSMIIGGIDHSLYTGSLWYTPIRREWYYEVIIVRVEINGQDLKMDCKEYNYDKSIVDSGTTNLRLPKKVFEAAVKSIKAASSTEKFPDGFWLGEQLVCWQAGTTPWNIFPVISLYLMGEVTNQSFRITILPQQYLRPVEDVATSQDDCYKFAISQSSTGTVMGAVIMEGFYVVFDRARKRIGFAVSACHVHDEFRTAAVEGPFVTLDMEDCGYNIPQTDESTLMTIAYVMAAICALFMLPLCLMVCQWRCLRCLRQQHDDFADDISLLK

Turning to `CC(C)(C)CCN(CCN1CCOCC1)C(=O)CCC(c1cc2cc(-c3ccccc3F)ccc2nc1N)C1CCOCC1` (centres unmarked) [Compound 47, 4-[2-Amino-6-(2-fluoro-phenyl)-quinolin-3-yl]-N-(3,3-dimethyl-butyl)-N-(2-morpholin-4-yl-ethyl)-4-(tetrahydro-pyran-4-yl)-butyramide], the half-inhibitory concentration (IC50) amounted to 0.37 µM and the inhibition at 10 µM was found to be 58%.
In the case of `CN(CCCC(c1cc2cc(-c3ccccc3F)ccc2nc1N)C1CCOCC1)CC1CC1` (centres unmarked) [Compound 3], the “% Inh @ 10 μM” value is recorded as 35%.
`Cn1ccnc1N(CCC(C)(C)C)C(=O)CCC(c1cc2cc(-c3ccccn3)ccc2nc1N)C1CCOCC1` (centres unmarked) [Compound 27]: the IC50 came out at 1.8 µM and the inhibition at 10 µM was 91%.
For `CN(CCCC(c1cc2cc(-c3ccccc3F)ccc2nc1N)C1CCOCC1)CC1CCCCC1` (centres unmarked) [Compound 13], the “% Inh @ 10 μM” value is on record as 77%.
Take `CC(C)(CO)CNCCCC(c1cc2cc(-c3ccccc3F)ccc2nc1N)C1CCOCC1` (centres unmarked) [Compound 6]: the IC50 was more than 5 µM and the inhibition at 10 µM turned out to be 43%.
On to `CC(C)(C)CCN(CCCC(c1cc2cc(-c3ccccc3F)ccc2nc1N)C1CCOCC1)CCN1CCOCC1` (centres unmarked) [Compound 43, 3-[4-[(3,3-Dimethyl-butyl)-(2-morpholin-4-yl-ethyl)-amino]-1-(tetrahydro-pyran-4-yl)-butyl]-6-(2-fluoro-phenyl)-quinolin-2-ylamine], for which the inhibition at 10 µM is 78%.
On to `CC(C)(C)OCCNCCCC(c1cc2cc(-c3ccccc3F)ccc2nc1N)C1CCOCC1` (centres unmarked) [Compound 10], for which the 50% inhibitory concentration (IC50) amounted to 0.83 µM and the inhibition at 10 µM turned out to be 47%.
Take `Cn1ccnc1CN(CCC(C)(C)C)C(=O)CCC(c1cc2cc(-c3ccc[nH]3)ccc2nc1N)C1CCOCC1` (centres unmarked) [Compound 24]: the half-inhibitory concentration (IC50) was 1.4 µM and the “% Inh @ 10 μM” value was 93%.
Turning to `Cn1ccnc1CN(CCCC(c1cc2cc(-c3ccccc3F)ccc2nc1N)C1CCOCC1)CCC(C)(C)C` (centres unmarked) [Compound 29], the IC50 came to 1.5 µM and the “% Inh @ 1 μM” value is 54%.
In the case of `Cn1ccnc1CN(CCC(C)(C)C)C(=O)CCC(c1cc2cc(-c3ccccc3F)ccc2nc1N)C1CCOCC1` (centres unmarked) [Compound 39], the IC50 came out at 0.35 µM and the “% Inh @ 1 μM” value was 93%.
`COc1cc2nc(N)c(C(CCC(=O)N(CCN3CCOCC3)C3CCCCC3)C3CCOCC3)cc2cc1-c1ccccc1F` (centres unmarked) [Compound 53]: the 50% inhibitory concentration (IC50) is 2.2 µM and the inhibition at 10 µM is 55%.
For the molecule `Nc1nc2ccc(-c3ccccc3F)cc2cc1C(CCC(=O)NCCO)C1CCOCC1` (centres unmarked) [Compound 1], the “% Inh @ 10 μM” value was determined as 34%.
Regarding `CCOc1cc2nc(N)c(C(CCn3cc(C(C)(C)C)nn3)C3CCOCC3)cc2cc1-c1ccccc1F` (centres unmarked) [Compound 22, 3-[3-(4-tert-Butyl-[1,2,3]triazol-1-yl)-1-(tetrahydro-pyran-4-yl)-propyl]-7-ethoxy-6-(2-fluoro-phenyl)-quinolin-2-ylamine], the IC50 is 0.15 µM and the inhibition at 10 µM turned out to be 65%.
For `Cn1ccnc1CN(CCC(C)(C)C)C(=O)CCC(c1cc2cc(-c3ccc(F)cc3)ccc2nc1N)C1CCOCC1` (centres unmarked) [Compound 37], the “% Inh @ 10 μM” value amounted to 82%.
The same measure, in the same setting: in the case of `COc1cc2nc(N)c(C(CCC(=O)NCCC(C)(C)C)C3CCOCC3)cc2cc1-c1ccccc1F` (centres unmarked) [Compound 19] it was 14%.
Take `Nc1nc2ccc(-c3ccccc3F)cc2cc1C(CCC(=O)NCC1CCCCC1)C1CCOCC1` (centres unmarked) [Compound 12]: the IC50 was 0.35 µM and the inhibition at 10 µM was determined as 74.5%.
Regarding `Cn1ccnc1CN(CCC(C)(C)C)C(=O)CCC(c1cc2cc(-c3ccccc3)ccc2nc1N)C1CCOCC1` (centres unmarked) [Compound 25], the IC50 was 0.32 µM and the “% Inh @ 10 μM” value worked out at 72%.
With `Nc1nc2ccc(-c3ccccc3F)cc2cc1C(CCC(=O)NCC1CC1)C1CCOCC1` (centres unmarked) [Compound 2], the “% Inh @ 10 μM” value is reported as 59%.
In the case of `Cn1ccnc1CN(CCC(C)(C)C)C(=O)CCC(c1cc2cc(-c3ccccc3C(F)(F)F)ccc2nc1N)C1CCOCC1` (centres unmarked) [Compound 55], the IC50 amounted to 2.4 µM and the “% Inh @ 10 μM” value was 90%.
Take `COc1cc2nc(N)c(C(CCCN(CCN3CCOCC3)C3CCCCC3)C3CCOCC3)cc2cc1-c1ccccc1F` (centres unmarked) [Compound 52]: the IC50 turned out to be 3.6 µM and the inhibition at 10 µM worked out at 55%.
The corresponding values for `Nc1nc2ccc(-c3ccccc3F)cc2cc1C(CCC(=O)N(CCN1CCCC1)C1CCCCC1)C1CCOCC1` (centres unmarked) [Compound 41] are 0.45 µM and 65%.
`CN(CC1CC1)C(=O)CCC(c1cc2cc(-c3ccccc3F)ccc2nc1N)C1CCOCC1` (centres unmarked) [Compound 4]: the “% Inh @ 10 μM” value came to 71%.
Take `COc1ccccc1-c1cc2cc(C(CCn3cc(C(C)(C)C)nn3)C3CCOCC3)c(N)nc2cc1OC` (centres unmarked) [Compound 20]: the IC50 worked out at 0.89 µM and the inhibition at 10 µM came to 92%.
As for `COc1ccccc1-c1ccc2nc(N)c(C(CCCN(CCC(C)(C)C)c3nccn3C)C3CCOCC3)cc2c1` (centres unmarked) [Compound 36], the IC50 turned out to be 0.5 µM and the inhibition at 1 µM is 76%.
The corresponding values for `Nc1nc2ccc(-c3ccccc3F)cc2cc1C(CCC(=O)NC12CC3CC(CC(C3)C1)C2)C1CCOCC1` (centres unmarked) [Compound 23] are 0.57 µM and 97%.
On to `CC(C)(C)CCN(Cc1ccccc1)C(=O)CCC(c1cc2cc(-c3ccccc3F)ccc2nc1N)C1CCOCC1` (centres unmarked) [Compound 34], for which the IC50 is 0.39 µM and the inhibition at 10 µM came out at 68%.
As to `CC(C)(C)CCN(Cc1ccccn1)C(=O)CCC(c1cc2cc(-c3ccccc3F)ccc2nc1N)C1CCOCC1` (centres unmarked) [Compound 35], the half-maximal inhibitory concentration (IC50) was 0.33 µM and the inhibition at 10 µM was determined as 116%.
As for `CCOc1ccccc1-c1ccc2nc(N)c(C(CCC(=O)N(CCC(C)(C)C)Cc3nccn3C)C3CCOCC3)cc2c1` (centres unmarked) [Compound 51, 4-[2-Amino-6-(2-ethoxy-phenyl)-quinolin-3-yl]-N-(3,3-dimethyl-butyl)-N-(1-methyl-1H-imidazol-2-ylmethyl)-4-(tetrahydro-pyran-4-yl)-butyramide], the half-maximal inhibitory concentration (IC50) is 0.32 µM and the inhibition at 10 µM worked out at 99%.
For `COc1ccccc1-c1ccc2nc(N)c(C(CCC(=O)N(CCC(C)(C)C)Cc3nccn3C)C3CCOCC3)cc2c1` (centres unmarked) [Compound 45], the IC50 amounted to 0.53 µM and the “% Inh @ 1 μM” value is 94%.
Turning to `Cn1ccnc1CN(CCC(C)(C)C)C(=O)CCC(c1cc2cc(-c3cccs3)ccc2nc1N)C1CCOCC1` (centres unmarked) [Compound 31, 4-(2-Amino-6-thiophen-2-yl-quinolin-3-yl)-N-(3,3-dimethyl-butyl)-N-(1-methyl-1H-imidazol-2-ylmethyl)-4-(tetrahydro-pyran-4-yl)-butyramide], the half-inhibitory concentration (IC50) amounted to 0.42 µM, the inhibition at 1 µM came to 79% and the inhibition at 10 µM was found to be 98%.
Take `Cn1ccnc1N(CCC(C)(C)C)C(=O)CCC(c1cc2cc(-c3cccc(F)c3)ccc2nc1N)C1CCOCC1` (centres unmarked) [Compound 38]: the IC50 worked out at 0.47 µM and the inhibition at 10 µM came out at 69%.
For `COc1cc2nc(N)c(C(CCn3cc(C(C)(C)C)nn3)C3CCOCC3)cc2cc1-c1ccccc1F` (centres unmarked) [Compound 17], the IC50 stood at 1.4 µM and the inhibition at 10 µM amounted to 73%.
The matching figures for `COc1cc2nc(N)c(C(CCCNCCC(C)(C)C)C3CCOCC3)cc2cc1-c1ccccc1F` (centres unmarked) [Compound 16]: more than 0.62 µM and 88%.
For the molecule `CCOc1ccc(-c2ccc3nc(N)c(C(CCC(=O)N(CCC(C)(C)C)Cc4nccn4C)C4CCOCC4)cc3c2)cc1` (centres unmarked) [Compound 50], the “% Inh @ 10 μM” value was determined as 22%.
As for `CC(C)(C)CCNC(=O)CCC(c1cc2cc(-c3ccccc3F)ccc2nc1N)C1CCOCC1` (centres unmarked) [Compound 7], the half-inhibitory concentration (IC50) came out at 0.26 µM and the inhibition at 10 µM is 83%.
In the case of `CN(CC1CCCCC1)C(=O)CCC(c1cc2cc(-c3ccccc3F)ccc2nc1N)C1CCOCC1` (centres unmarked) [Compound 18], the “% Inh @ 10 μM” value came to 77%.
Regarding `Nc1nc2ccc(-c3cccs3)cc2cc1C(CCC(=O)NC12CC3CC(CC(C3)C1)C2)C1CCOCC1` (centres unmarked) [Compound 21], the IC50 came to 0.69 µM and the inhibition at 1 µM turned out to be 87%.
Turning to `CC(C)(C)OCCNC(=O)CCC(c1cc2cc(-c3ccccc3F)ccc2nc1N)C1CCOCC1` (centres unmarked) [Compound 15], the IC50 came out at 0.54 µM and the inhibition at 10 µM worked out at 113%.
With `Cn1ccnc1CN(CCC(C)(C)C)C(=O)CCC(c1cc2cc(-c3ccccc3OC(F)(F)F)ccc2nc1N)C1CCOCC1` (centres unmarked) [Compound 56], the “% Inh @ 10 μM” value came out at 73%.
For `CC(C)(C)CCN(Cc1cncs1)C(=O)CCC(c1cc2cc(-c3ccccc3F)ccc2nc1N)C1CCOCC1` (centres unmarked) [Compound 42], the IC50 amounted to 0.32 µM and the inhibition at 10 µM was determined as 65%.
Turning to `Cn1ccnc1CN(CCC(C)(C)C)C(=O)CCC(c1cc2cc(-c3cccc(C(F)(F)F)c3)ccc2nc1N)C1CCOCC1` (centres unmarked) [Compound 54], the “% Inh @ 10 μM” value is on record as 8%.
For `CC(C)(C)CCN(CCCC(c1cc2cc(-c3ccccc3F)ccc2nc1N)C1CCOCC1)Cc1ccccn1` (centres unmarked) [Compound 28], the IC50 was 0.88 µM and the inhibition at 10 µM stood at 74%.
Take `Cn1ccnc1CN(CCC(C)(C)C)C(=O)CCC(c1cc2cc(-c3cccc4cc[nH]c34)ccc2nc1N)C1CCOCC1` (centres unmarked) [Compound 49]: the “% Inh @ 10 μM” value came to 99%.
